Test results reported in US20080132446A1, “Uses of neuronal pannexins for therapy and diagnosis in mammals” (INSTITUT PASTEUR, priority 2003, published 2008).
Values joined by “and” are separate entries in the source; they are usually repeats but may differ in a detail not shown here. Equal entries are not always repeated. “Also recorded” adds a separate entry of the source.

How the values were obtained:
Type in all cases: cell-based
Cx46 hemi-channels = target: T1, Cx46 hemi-channels (Rattus norvegicus, UniProt P29414); test: Cx46 hemi-channel currents in single Xenopus oocytes (two-electrode voltage-clamp)
T1 construct: expressed in transfected cells; host or cells: Xenopus laevis oocytes injected with Cx46 RNA (4 ng/cell) plus antisense to endogenous Cx38
Protocol: (§1) Stage V-VI cells were individually selected under a dissecting microscope and cultured thereafter in control medium at 18° C. For physiological analysis, all cells were injected with a total volume of 40 nl of either an antisense oligonucleotide (3 ng/cell) to suppress the endogenous Xenopus Cx38 (30; 51), or a mixture of antisense (as above) plus the specified pannexin or connexin RNA. The following amounts of RNAs were injected: 40-80 ng/cell for Px1 and Px2 RNAs, either separately or co-injected at a 1:1 ratio; 4 ng/cell for Cx46; 10-20 ng/cell for Cx52.6. For analysis of Cx46 hemi-channels, the extracellular Ca^2+ concentration was raised to 2.9 mM to prevent the lysis of the injected oocytes that occurs in control medium, which contains 0.9 mM Ca^2+ (53). To characterize hemi-channel activity, current recordings were performed in single oocytes 24-96 hr after RNA injection, using a two-electrode voltage-clamp procedure.
(§2) The setup, hardware and software used for electrophysiological measurements and data analysis were as previously described (54; 49). Cells were clamped at −40 mV, and whole cell currents recorded in response to depolarizing voltage steps (from −20 to +60 mV in 20 mV increments) imposed for 2 sec. Current outputs were filtered at 200 Hz and sampled at 500 Hz.
All experiments were carried out at 18° C. Carbenoxolone (the succinyl ester of glycyrrhetinic acid), β-glycyrrhetinic acid and flufenamic (Sigma-Aldrich) were prepared freshly by dissolving them in either water (in the case of carbenoxolone) or dimethyl sulfoxide (DMSO), whose final concentration never exceeded 0.1%. […] Cells were incubated for 15-30 minutes in the presence of the different drugs and reversibility was recorded after extensive washings in control medium. […] The time constants (τ) of voltage-dependent transitions of hemi-channel currents were calculated using data fitting functions in Origin 6.0 (Microcal Software, Northampton, Mass.). […]

Px1 hemi-channels = target: T2, Px1 hemi-channels (Rattus norvegicus, UniProt P60570); test: Px1 hemi-channel currents in single Xenopus oocytes (two-electrode voltage-clamp)
T2 construct: expressed in transfected cells; host or cells: Xenopus laevis oocytes injected with in vitro transcribed RNA (pBSxG vector) plus antisense to endogenous Cx38
Protocol: For physiological analysis, cells were injected with a total volume of 40 nl of either an antisense oligonucleotide (3 ng/cell) to suppress the endogenous Xenopus Cx38 (30), or a mixture of antisense plus the specified RNA (20-80 ng/cell). The ability of pannexins to form hemi-channels was assessed in single oocytes 2-4 days after RNA injection, using a two-electrode voltage-clamp.
Whole-cell membrane currents (Im) were measured from single oocytes co-injected with pannexin RNAs and an oligonucleotide antisense to Xenopus Cx38 (FIG. 3A). Cells were initially clamped at a membrane potential (Vm) of −40 mV and depolarizing steps lasting 2 sec were applied in 10 mV increments up to +60 mV (bottom traces).
as §1, §2
All experiments were carried out at 18° C. Carbenoxolone (the succinyl ester of glycyrrhetinic acid), β-glycyrrhetinic acid and flufenamic (Sigma-Aldrich) were prepared freshly by dissolving them in either water (in the case of carbenoxolone) or dimethyl sulfoxide (DMSO), whose final concentration never exceeded 0.1%. […] Oocytes were placed on a Teflon tubing in a perfusion chamber and drugs were delivered using an electronically controlled gravity flow perfusion system (ALA Scientific Instruments, Westbury, N.Y.). […] Current-voltage (I-V) relationships were generated by plotting peak current values above holding currents (ΔIm) versus membrane potential. The time constants (τ) of voltage-dependent transitions of hemi-channel currents were calculated using data fitting functions in Origin 6.0 (Microcal Software, Northampton, Mass.). In all experiments, positive controls showing the effect of the tested drugs were routinely included.

Px1/Px2 hemi-channels = target: T3, Px1/Px2 hemi-channels (Rattus norvegicus, UniProt P60570+P60571); test: Heteromeric Px1/Px2 hemi-channel currents in single Xenopus oocytes (two-electrode voltage-clamp)
T3 construct: expressed in transfected cells; host or cells: Xenopus laevis oocytes co-injected with Px1 and Px2 RNA (1:1) plus antisense to endogenous Cx38
Protocol: as §1, §2
All experiments were carried out at 18° C. Carbenoxolone (the succinyl ester of glycyrrhetinic acid), β-glycyrrhetinic acid and flufenamic (Sigma-Aldrich) were prepared freshly by dissolving them in either water (in the case of carbenoxolone) or dimethyl sulfoxide (DMSO), whose final concentration never exceeded 0.1%. […] Oocytes were placed on a Teflon tubing in a perfusion chamber and drugs were delivered using an electronically controlled gravity flow perfusion system (ALA Scientific Instruments, Westbury, N.Y.). Cells were incubated for 15-30 minutes in the presence of the different drugs and reversibility was recorded after extensive washings in control medium. Current-voltage (I-V) relationships were generated by plotting peak current values above holding currents (ΔIm) versus membrane potential. The time constants (τ) of voltage-dependent transitions of hemi-channel currents were calculated using data fitting functions in Origin 6.0 (Microcal Software, Northampton, Mass.). In all experiments, positive controls showing the effect of the tested drugs were routinely included.

T3 sequence (P60570 whole entry): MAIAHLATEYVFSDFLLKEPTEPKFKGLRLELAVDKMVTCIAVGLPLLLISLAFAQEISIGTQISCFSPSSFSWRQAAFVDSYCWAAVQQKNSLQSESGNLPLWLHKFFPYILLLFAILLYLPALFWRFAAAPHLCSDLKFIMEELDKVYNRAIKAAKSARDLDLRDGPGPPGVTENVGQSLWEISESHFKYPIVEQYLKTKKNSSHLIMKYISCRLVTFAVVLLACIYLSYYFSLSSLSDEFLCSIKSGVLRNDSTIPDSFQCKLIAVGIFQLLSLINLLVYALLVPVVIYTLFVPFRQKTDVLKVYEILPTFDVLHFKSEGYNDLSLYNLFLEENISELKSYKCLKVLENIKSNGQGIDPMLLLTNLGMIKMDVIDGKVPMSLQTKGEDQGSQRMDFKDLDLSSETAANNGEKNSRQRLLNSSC
T3 sequence (P60571 11-674): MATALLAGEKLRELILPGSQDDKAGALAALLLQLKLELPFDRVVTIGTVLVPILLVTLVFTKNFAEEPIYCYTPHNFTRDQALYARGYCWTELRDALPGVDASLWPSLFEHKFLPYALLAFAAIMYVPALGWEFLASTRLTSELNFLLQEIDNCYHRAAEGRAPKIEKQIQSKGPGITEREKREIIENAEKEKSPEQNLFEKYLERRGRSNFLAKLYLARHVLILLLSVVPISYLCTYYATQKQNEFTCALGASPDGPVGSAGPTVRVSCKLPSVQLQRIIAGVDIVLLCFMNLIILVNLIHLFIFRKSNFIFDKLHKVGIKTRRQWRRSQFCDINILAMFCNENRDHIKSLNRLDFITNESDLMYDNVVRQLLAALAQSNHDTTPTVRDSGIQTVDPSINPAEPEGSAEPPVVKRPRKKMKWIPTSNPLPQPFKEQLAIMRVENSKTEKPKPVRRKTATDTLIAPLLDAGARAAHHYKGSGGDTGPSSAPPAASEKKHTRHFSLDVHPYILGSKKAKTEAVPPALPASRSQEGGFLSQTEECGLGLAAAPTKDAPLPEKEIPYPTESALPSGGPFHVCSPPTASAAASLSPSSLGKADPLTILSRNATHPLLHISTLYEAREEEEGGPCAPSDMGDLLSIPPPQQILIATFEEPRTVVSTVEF
T2 sequence (P60570 whole entry): as the sequence (P60570 whole entry) above

CC1(C)[C@@H](OC(=O)CCC(=O)O)CC[C@]2(C)[C@H]3C(=O)C=C4[C@@H]5C[C@@](C)(C(=O)O)CC[C@]5(C)CC[C@@]4(C)[C@]3(C)CC[C@@H]12 [carbenoxolone]
effect on I-V relationship of Cx46-expressing oocytes (Cx46 hemi-channels; 10 μM CBX, 30 min incubation): virtually identical to that measured in control medium | effect on time constant (τ) of Px1 channel closure (Px1 hemi-channels; 3 μM CBX, +60 mV): gated much faster than in control medium | time constants (τ) of Px1 channel closure, faster than in control medium (Px1 hemi-channels; 3 μM CBX, depolarized to +60 mV from −40 mV, first order exponential decay fit): approximately 10 times | decrease of Px1 hemi-channel currents (Px1 hemi-channels; 10 μM CBX, 30 min incubation): 50-60% | effect on Px1 currents (Px1 hemi-channels; 30 μM carbenoxolone, 10-30 min incubation): completely suppressed Px1 currents | peak amplitude of Px1 currents at +60 mV (Px1 hemi-channels; 30 μM carbenoxolone, 10-30 min incubation, control medium 1189±170 nA, n=4): 255±47 nA | effect on Px1 hemi-channel currents (Px1 hemi-channels; 50 μM, 30 min incubation, reversible on washout, listed as CBX): robust and reversible decrease; also recorded: strongly blocked | Hill coefficient (Px1 hemi-channels; concentration dependence of blockade of Px1 hemi-channel currents): ~1 | IC50 (Px1 hemi-channels; normalized peak currents at +60 mV, fit to Hill equation, 3-9 cells, read-out: IC50 of blockade of Px1 hemi-channel currents): 5 µM and ~5 µM | reversibility of inhibition of Px1 hemi-channels (Px1 hemi-channels; up to highest dose tested (100 μM), washout and 30 min in control medium): always reversible | effect on Px1 hemi-channel currents (Px1 hemi-channels; very low CBX concentrations (<1 μM)): ineffective | decrease of Px1/Px2 hemi-channel currents (Px1/Px2 hemi-channels; 10 μM CBX, 30 min incubation): 50-60% | current amplitude at the +60 mV depolarization step (Px1/Px2 hemi-channels; 10 μM CBX, control medium 612±50 nA, n=6 cells): 266±24 nA | current amplitude at the +60 mV depolarization step after reversibility period (Px1/Px2 hemi-channels; after 10 μM CBX, washout and 30 min in control medium, n=6 cells): 541±70 nA

O=C(O)c1ccccc1Nc1cccc(C(F)(F)F)c1 [flufenamic acid]
effect on Cx46 hemi-channels (Cx46 hemi-channels; 30 μM FFA, 30 min application, starting with the 0 mV depolarization step): strong (P<0.005) and fully reversible inhibition | effect on Cx46 hemi-channel currents (Cx46 hemi-channels; increasing FFA concentrations, 300 μM FFA, 30 min, listed as FFA): virtually suppressed Cx46 hemi-channels; also recorded: almost complete blockade | inhibition of Px1 currents (Px1 hemi-channels; 30 μM FFA, 30 min, at the more positive potentials): 10-15% | effect on time constant (τ) of Px1 channel closure (Px1 hemi-channels; 300 μM FFA, +60 mV, listed as FFA): did not affect the time constant of channel closure; also recorded: did not show any appreciable change | extent of Px1 channel blockade (Px1 hemi-channels; highest FFA concentration used (300 μM), +60 mV): ≤ 33% | effect on Px1 hemi-channels (Px1 hemi-channels; increasing FFA concentrations up to 300 μM, 30 min, listed as FFA): moderate inhibition of Px1 currents; also recorded: modest inhibition of Px1 hemi-channels only at the highest dose | inhibitory effect on pannexins (Px1 hemi-channels; summary statement): only a modest inhibitory effect | inhibition of Px1/Px2 current amplitudes at +60 mV (Px1/Px2 hemi-channels; 30 μM FFA, n=12): about 15% | Px1/Px2 current amplitude at +60 mV (Px1/Px2 hemi-channels; 30 μM FFA, 603±123 nA in MB, n=12): 504±101 nA | Px1/Px2 current amplitude at +60 mV (Px1/Px2 hemi-channels; 300 μM FFA, 609±135 nA before, n=11): 448±104 nA | inhibition at 300 µM (Px1/Px2 hemi-channels; highest FFA concentration (300 μM), n=11, read-out: inhibition of Px1/Px2 current amplitudes at +60 mV): 27%

CC1(C)[C@@H](O)CC[C@]2(C)[C@H]3C(=O)C=C4[C@H]5C[C@@](C)(C(=O)O)CC[C@]5(C)CC[C@@]4(C)[C@]3(C)CC[C@@H]12 [βGA, β-glycyrrhetinic acid]
effect on Px1 hemi-channel currents (Px1 hemi-channels; 50 μM, 30 min incubation, reversible on washout): robust and reversible decrease; also recorded: strongly blocked
